This passage reports response vs control in vivo and IC50 results from US5629430A, “Trifluoromethylpyrroloindolecarboxylic acid ester and process for production thereof” (Kyorin Pharmaceutical Co., Ltd., priority 1992, dated 1997).

One assay concerns Sarcoma-180 cells. The assay is described as follows: Antineoplastic activity, mice having Sarcoma-180 cells transplanted subcutaneously. The class given is in vivo, mouse (female, CDR strain). The note with it: Mus musculus, Sarcoma-180, iv, 144 h, tumor weighed six days after dosage, read-out: T/C (average tumor weight, dosed vs. solvent-dosed control); for response vs control in vivo at 0.125 mg/kg: i.v. 0.125 mg/kg single dose; for response vs control in vivo at 0.25 mg/kg: i.v. 0.25 mg/kg single dose. The method, then:
(§1) The test compound was dissolved in dimethylsulfoxide, and the solution was adequately diluted with 10% Emulfore EL620(produced by Rhone Poulenc Co.) to prepare the test compound solution. The antineoplastic activity was evaluated as below.
To the lateral region of a female mouse (CDR strain, 5 to 6 week age), 3.6×10^6 to 5×10^6 Sarcoma-180 cells were transplanted subcutaneously. Next day, the test medicine solution was injected into the tail vein in a single dose. Eight to twelve mice were employed for the solvent-dosed control group, and five mice were employed for the dosed group. Six days after the dosage, the tumor was cut out, and the weight thereof was measured. The antineoplastic effect was evaluated by the ratio (T/C) of the average tumor weight of the dosed group (T) to the average tumor weight of the solvent-dosed control group (C).

The test system of assay [1] is P388 mouse leukemia cells. The assay is described as follows: Activity against tumor cell growth (P388, MTT, 72 h). Format: cell-based. The note with it: P388 mouse leukemia cells, 72 h, 37° C., MTT; read-out: IC50 (50% growth inhibition concentration). The method, then: Using a culture medium RPMI1640 supplemented with 10% inactivated bovine fetal serum, 2 mM glutamine, 100 μ/ml kanamycin sulfate, and 5 μM 2-hydroxyethyldisulfide (This culture medium is hereinafter referred to simply as "culture medium"), P388 mouse leukemia cells were diluted to a concentration of 1.5×10^5 cells/ml in the culture medium, and were placed in each well of 96-well multiplate in 60 μl portions. Separately, the test compound was dissolved in dimethylsulfoxide and was adequately diluted with the culture medium. The diluted solution containing test compound was added to the wells of the above plate respectively in 60 μl portions. Then the cells were incubated in a CO2 -incubator (5% CO2, 37° C.) for 72 hours.
The surviving cell numbers were measured according to the Mosmann's method (J. Immunol. Meth., 65 55-63, 1983) as follows. A 2.5 mg/ml solution of MTT (3-[4,5-dimethylthiazol-2-yl]-2,5-diphenyltetrazolium bromide) in Dulbecco's phosphate buffer solution (PBS) was prepared and added to each of the wells by 20 μl. The cells were further incubated for 3 hours. A 150 μl portion of 0.04N hydrochloric acid-isopropanol solution was added to each of the wells, and MTT-formazane formed was allowed to dissolve by pipetting. The absorbance of the solutions was measured at 540 nm taking the no-cell-containing [solution as the background. The 50% growth inhibition concentration (ICs50) was calculated from ratio of the absorbances of the treated samples to the absorbance of the no-medicine-treated sample, and from the concentration of the test compound.

Another assay has as its system Colon-26 cells. The assay is described as follows: Antineoplastic activity, mice having Colon-26 cells transplanted subcutaneously. Format: in vivo, mouse (female, CDF1 strain). Conditions: Mus musculus, Colon 26, iv, 168 h, read-out: T/C (average tumor weight, dosed vs. solvent-dosed control); for response vs control in vivo at 0.5 mg/kg: i.v. 0.5 mg/kg single dose on sixth day. The method, then:
as §1
To the lateral region of a female mouse (CDF1 strain, 8 to 12 week age), 1×10^6 Colon-26 cells were transplanted subcutaneously. On the sixth day after the transplantation, the test medicine solution-was injected into the tail vein in a single dose. Seven to twelve mice were employed for the solvent-dosed control group, and five mice were employed for the dosed group. One week after the dosage, the tumor was cut out, and the weight thereof was measured. The antineoplastic effect was evaluated by the ratio (T/C) of the average tumor weight of the dosed group (T) to the average tumor weight of the solvent-dosed control group (C).

The mark [2] stands for this setting: tumor weighed one week after dosage.

Values after ≈ are worked out from the molar mass of the structure shown.

Regarding `COC(=O)c1c(C(F)(F)F)[nH]c2c1C13CC1CN(C(=O)c1cc4cc(NC(=O)c5cc6cc(OC)c(OC)c(OC)c6[nH]5)ccc4[nH]1)C3=CC2=O` (stereo not drawn) [Example 27, Methyl 6-trifluoromethyl-2-[5-[(5,6,7-trimethoxy-1H indol-2-ylcarbonyl)amino]-1H-indol-2-ylcarbonyl]-1,2,8,8a-tetrahydrocyclopropa[c]pyrrolo[3,2-e]indole-4 (5H)-one-7-carboxylate], in the assay on Sarcoma-180 cells, the response vs control in vivo at 0.125 mg/kg was 19%. In assay [1], the IC50 came out at 0.17 ng/mL (≈ 0.242 nM). On to `COC(=O)c1c(C(F)(F)F)[nH]c2c1C13CC1CN(C(=O)c1cc4cc(NC(=O)c5cc6c(OC)c(OC)c(OC)cc6[nH]5)ccc4[nH]1)C3=CC2=O` (stereo not drawn) [Example 28, Methyl 6-trifluoromethyl-2-[5-[(4,5,6-trimethoxy-1-H-indol-2-ylcarbonyl)amino]-1H-indol-2-ylcarbonyl]-1,2,8,8a-tetrahydrocyclopropa[c]pyrrolo[3,2-e]indole-4(5H)-one-7-carboxylate], for which the response vs control in vivo at 0.25 mg/kg in the assay on Sarcoma-180 cells is 28%. In assay [1], the IC50 worked out at 0.11 ng/mL (≈ 0.156 nM).

For `COC(=O)c1c(C(F)(F)F)[nH]c2c1C13CC1CN(C(=O)c1cc4cc(NC(=O)c5cc6ccccc6cn5)ccc4[nH]1)C3=CC2=O` (stereo not drawn) [Example 31, Methyl 3-[5-[(isoquinolin-3-ylcarbonyl)amino]-1H-indol-2-ylcarbonyl]-6-trifluoromethyl-1,2,8,8a-tetrahydrocyclopropa[c]pyrrolo[3,2-e]indol-4 (5H)-one-7-carboxylate], in the assay with Sarcoma-180 cells, the response vs control in vivo at 0.125 mg/kg is 24%. For the same compound, in assay [1], the IC50 was 0.1 ng/mL (≈ 0.16 nM). For the compound `COC(=O)c1c(C(F)(F)F)[nH]c2c1C13CC1CN(C(=O)c1cc4cc(NC(=O)c5cc6c(OC)c(OC)c(OC)cc6cn5)ccc4[nH]1)C3=CC2=O` (stereo not drawn) [Example 32, Methyl 6-trifluoromethyl-2-[5-[(5,6,7-trimethoxyisoquinolin-3-ylcarbonyl)amino]-1H-indol-2-ylcarbonyl]-1,2,8,8a-tetrahydrocyclopropa[c]pyrrolo[3,2e]indol-4 (5H)-one-7-carboxylate], the response vs control in vivo at 0.125 mg/kg in the assay with Sarcoma-180 cells came to 23%. In assay [1], the IC50 amounted to 0.09 ng/mL (≈ 0.126 nM). Take `COC(=O)c1c(C(F)(F)F)[nH]c2c(O)cc3c(c12)C(CBr)CN3C(=O)c1cc2cc(NC(=O)c3cc4ccccc4o3)ccc2[nH]1` (stereo not drawn) [Example 37, Methyl 3-[5-[(benzofuran-2-ylcarbonyl)amino]-1H-indol-2-ylcarbonyl]-1-bromomethyl-5-hydroxy-7-trifluoromethyl-1,2,3,6-tetrahydropyrrolo[3,2-e]indole-8-carboxylate]: the response vs control in vivo at 0.25 mg/kg in the assay on Sarcoma-180 cells was found to be 24%. Further, the IC50 in assay [1] came to 0.61 ng/mL (≈ 0.877 nM).

For the compound `COC(=O)c1c(C(F)(F)F)[nH]c2c(O)cc3c(c12)C(CBr)CN3C(=O)c1cc2cc(NC(=O)c3cc4ccccc4cn3)ccc2[nH]1` (stereo not drawn) [Example 43, Methyl 1-bromomethyl-5-hydroxy-3-[5-[(isoquinolin-3-ylcarbonyl)amino]-1H-indol-2-ylcarbonyl]-7-trifluoromethyl-1,2,3,6-tetrahydropyrrolo[3,2-e]indole-8-carboxylate], in the assay on Sarcoma-180 cells, the response vs control in vivo at 0.125 mg/kg turned out to be 25%. In addition, the IC50 in assay [1] amounted to 0.1 ng/mL (≈ 0.142 nM). Take `COC(=O)c1c(C(F)(F)F)[nH]c2c(O)cc3c(c12)C(CCl)CN3C(=O)c1cc2cc(NC(=O)c3cc4c(OC)c(OC)c(OC)cc4nn3)ccc2[nH]1` (stereo not drawn) [Example 50, Methyl 1-chloromethyl-5-hydroxy-7-trifluoromethyl-3-[5-[(5,6,7-trimethoxycinnolin-3-ylcarbonyl)amino]-1H-indol-2-ylcarbonyl]-1,2,3,6-tetrahydropyrrolo[3,2-e]indole-8-carboxylate]: the response vs control in vivo at 4 mg/kg with Sarcoma-180 cells (i.v. 4.0 mg/kg single dose) came out at 15%. In assay [1], the IC50 was 4.5 ng/mL (≈ 5.98 nM). As to `COC(=O)c1c(C(F)(F)F)[nH]c2c(O)cc3c(c12)[C@H](CCl)CN3C(=O)c1cc2cc(NC(=O)c3cc4cccc(OC)c4o3)ccc2[nH]1` [Example 63, Methyl (1S)-1-chloromethyl-5-hydroxy-3-[5-[(7-methoxybenzofuran-2-ylcarbonyl)amino]-1H-indol-2-ylcarbonyl]-7-trifluoromethyl-1,2,3,6-tetrahydropyrrolo[3,2-e]indole-8-carboxylate], in the assay on Colon-26 cells (setting [2]), the response vs control in vivo at 0.5 mg/kg was 4%. Besides, the IC50 in assay [1] came out at 0.55 ng/mL (≈ 0.808 nM). `COC(=O)c1c(C(F)(F)F)[nH]c2c(O)cc3c(c12)[C@H](CCl)CN3C(=O)c1cc2cc(NC(=O)c3cc4c(OC)cccc4o3)ccc2[nH]1` [Example 75, Methyl (1S)-1-chloromethyl-5-hydroxy-3-[5-(4-methoxybenzofuran-2-ylcarbonyl)amino-1H-indol-2-ylcarbonyl]-7-trifluoromethyl-1,2,3,6-tetrahydropyrrolo[3,2-e]indole-8-carboxylate]: the response vs control in vivo at 0.5 mg/kg in the assay with Colon-26 cells (setting [2]) worked out at 17%. Moreover, the IC50 in assay [1] was found to be 0.74 ng/mL (≈ 1.09 nM). The like results for `COC(=O)c1c(C(F)(F)F)[nH]c2c(O)cc3c(c12)[C@H](CCl)CN3C(=O)c1cc2cc(NC(=O)c3cc4cc(OC)ccc4o3)ccc2[nH]1` [Example 76, Methyl (1S)-1-chloromethyl-5-hydroxy-3-[5-(5-methoxybenzofuran-2-ylcarbonyl)amino-1H-indol-2-ylcarbonyl]-7-trifluoromethyl-1,2,3,6-tetrahydropyrrolo[3,2-e]indole-8-carboxylate] were, in that order, 6% and 0.2 ng/mL (≈ 0.294 nM). For the compound `COC(=O)c1c(C(F)(F)F)[nH]c2c(O)cc3c(c12)[C@H](CCl)CN3C(=O)c1cc2cc(NC(=O)c3cc4ccc(OC)cc4o3)ccc2[nH]1` [Example 77, Methyl (1S)-1-chloromethyl-5-hydroxy-3-[5-(6-methoxybenzofuran-2-ylcarbonyl)amino-1H-indol-2-ylcarbonyl]-7-trifluoromethyl-1,2,3,6-tetrahydropyrrolo[3,2-e]indole-8-carboxylate], the response vs control in vivo at 0.5 mg/kg in the assay with Colon-26 cells (setting [2]) stood at 6%. In addition, the IC50 in assay [1] is 0.23 ng/mL (≈ 0.338 nM). In the case of `COC(=O)c1c(C(F)(F)F)[nH]c2c(O)cc3c(c12)[C@H](CCl)CN3C(=O)c1cc2cc(NC(=O)c3cc4cc(OC)c(OC)c(OC)c4o3)ccc2[nH]1` [Example 78, Methyl (1S)-1-chloromethyl-5-hydroxy.-7trifluoromethyl-3-[5-(5,6,7-trimethoxybenzofuran-2-ylcarbonyl)amino-1H-indol-2-ylcarbonyl]-1,2,3,6-tetrahydropyrrolo[3,2-e]indole-8-carboxylate], the response vs control in vivo at 0.125 mg/kg with Colon-26 cells (i.v. 0.125 mg/kg single dose on sixth day, tumor weighed one week after dosage) was determined as 26%. The IC50 in assay [1] was 0.33 ng/mL (≈ 0.445 nM). As for `CCN(CC)c1ccc2cc(C(=O)Nc3ccc4[nH]c(C(=O)N5C[C@@H](CCl)c6c5cc(O)c5[nH]c(C(F)(F)F)c(C(=O)OC)c65)cc4c3)oc2c1` [Example 79, Methyl (1S)-1-chloromethyl-3-[5-(6-diethylaminobenzofuran-2-ylcarbonyl)amino-1H-indol-2-ylcarbonyl]-5-hydroxy-7-trifluoromethyl-1,2,3,6tetrahydropyrrolo[3,2-e]indole-8-carboxylate], in the assay with Colon-26 cells (setting [2]), the response vs control in vivo at 0.5 mg/kg is 9%. Also, in assay [1], the IC50 is 2.1 ng/mL (≈ 2.91 nM). As for `COC(=O)c1c(C(F)(F)F)[nH]c2c(OC(=O)N3CCN(C)CC3)cc3c(c12)[C@H](CCl)CN3C(=O)c1cc2cc(NC(=O)c3cc4cccc(OC)c4o3)ccc2[nH]1` [Example 99, Methyl (1S)-1-chloromethyl-3-[5[(7-methoxybenzofuran-2-ylcarbonyl)amino]-1H-indol-2-ylcarbonyl]-5-(4-methylpiperazin-1-ylcarbonyl)oxy-7-trifluoromethyl-1,2,3,6-tetrahydropyrrolo[3,2-e]indole-8-carboxylate], in the assay on Colon-26 cells, the response vs control in vivo at 2 mg/kg is 5%.
